Laboratory results published in patent US11208387B2, “Macrocyclic broad spectrum antibiotics” (Genentech, Inc., priority 2019, dated 2021).
Converted amounts (≈) assume the structure as drawn. Like-named read-outs stand apart in the source and are kept apart here.

Experiments:
Test in all cases: Serum MIC, broth micro-dilution
Format in all cases: cell-based
[1] = system: Pseudomonas aeruginosa PA01; conditions: Pseudomonas aeruginosa, read-out: P. aeruginosa 01 Serum MIC
Procedure, shortened: (§1)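 Half mouse serum, half cation-adjusted MH II broth (v/v) served as test medium; bacteria at final OD600 0.0005 were exposed to serial 2-fold compound dilutions for 22 h, 35° C, and the MIC was determined per CLSI M07-A8.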

[2] = system: Klebsiella pneumoniae ATCC 700603; conditions: Klebsiella pneumoniae
Procedure, shortened: as §1

[3] = system: Escherichia coli strain ATCC 25922; conditions: Escherichia coli, read-out: E. coli 25922 Serum MIC
Procedure, shortened: as §1

[4] = system: Acinetobacter baumannii ATCC 17978; conditions: Acinetobacter baumannii
Procedure, shortened: as §1

[5] = ATCC700603, 22 h, read-out: K pneumoniae 700603 Serum MIC
[6] = ATCC17978, 22 h, read-out: A. baumanii 17978 Serum MIC
[7] = ATCC17978, 22 h, read-out: Acinetobacter baumanii 17978 Serum MIC
[8] = PA01, 50% v/v mouse serum in Mueller Hinton II cation adjusted Broth, 35° C., 22 hours, Table 4
[9] = ATCC700603, 50% v/v mouse serum in Mueller Hinton II cation adjusted Broth, 35° C., 22 hours, Table 4, read-out: K pneumoniae 700603 Serum MIC
[10] = ATCC25922, 50% v/v mouse serum in Mueller Hinton II cation adjusted Broth, 35° C., 22 hours, Table 4
[11] = ATCC17978, 50% v/v mouse serum in Mueller Hinton II cation adjusted Broth, 35° C., 22 hours, Table 4, read-out: A. baumanii 17978 Serum MIC
[12] = ATCC17978, 50% v/v mouse serum in Mueller Hinton II cation adjusted Broth, 35° C., 22 hours, Table 5, read-out: Acinetobacter baumanii 17978 Serum MIC
[13] = PA01, 50% v/v mouse serum, compounds of Table 1, Table 7
[14] = ATCC700603, 50% v/v mouse serum, compounds of Table 1, Table 7, read-out: K. pneumoniae 700603 Serum MIC
[15] = ATCC25922, 50% v/v mouse serum, compounds of Table 1, Table 7
[16] = ATCC17978, 50% v/v mouse serum, compounds of Table 1, Table 7, read-out: A. baumanii 17978 Serum MIC

| Structure (SMILES) | MIC [1, 8] | MIC [2, 9] | MIC [3, 10] | MIC [4, 11] | MIC [4, 12] | also measured |
| --- | --- | --- | --- | --- | --- | --- |
| C[C@@H]1NC(=O)[C@@H](N(C)C(=O)[C@H](CCN)NC(=O)c2cnn(-c3ccc(C(C)(C)C)cc3)c(=O)c2)c2cc(OC[C@H](O)CN)c(O)c(c2)-c2cc(ccc2OC[C@H](O)CN)C[C@@H](C(=O)O)NC1=O [Example 17, (8S,11S,14S)-18-hydroxy-11-methyl-14-[methyl-[(2S)-4-amino-2-[[1-(4-tert-butylphenyl)-6-oxo-pyridazine-4-carbonyl]amino]-butanoyl]amino]-10,13-dioxo-3,17-bis[(2R)-3-amino-2-hydroxy-propoxy]-9,12-diazatricyclo-[13.3.1.12,6]icosa-1(18),2(20),3,5,15(19), 16-hexaene-8-carboxylic acid] | – | – | – | – | – | MIC ([1]; PA01, 22 h): 64 µM (≈ 59.5 µg/mL); MIC [2, 5]: 1 µM (≈ 0.93 µg/mL); MIC ([3]; ATCC25922, 22 h): 1 µM (≈ 0.93 µg/mL); MIC [4, 6]: 16 µM (≈ 14.9 µg/mL); MIC [4, 7]: 16 µM (≈ 14.9 µg/mL) |
| C[C@@H]1NC(=O)[C@@H](N(C)C(=O)[C@H](CCN)NC(=O)c2cnn(-c3ccc(OC4CCCCC4)cc3)c(=O)c2)c2cc(OC[C@H](O)CN)c(O)c(c2)-c2cc(ccc2OC[C@H](O)CN)C[C@@H](C(=O)O)NC1=O [Example 26, (8S,11S,14S)-18-hydroxy-11-methyl-14-[methyl-[(2S)-4-amino-2-[[1-[4-(cyclohexoxy)phenyl]-6-oxo-pyridazine-4-carbonyl]amino]-butanoyl]amino]-10,13-dioxo-3,17-bis[(2R)-3-amino-2-hydroxy-propoxy]-9,12-diazatricyclo-[13.3.1.12,6]icosa-1(18),2(20),3,5,15(19), 16-hexaene-8-carboxylic acid] | 64 µM (≈ 62.2 µg/mL) | 0.75 µM (≈ 0.729 µg/mL) | 1 µM (≈ 0.972 µg/mL) | 24 µM (≈ 23.3 µg/mL) | 24 µM (≈ 23.3 µg/mL) | – |
| Cc1nc(-c2ccc(C(C)(C)C)cc2)nc(C)c1C(=O)N[C@@H](CCN)C(=O)N(C)[C@@H]1C(=O)N[C@@H](C)C(=O)N[C@H](C(=O)O)Cc2cc(OCCN)c(O)c(c2)-c2cc1ccc2O (racemic) [Example 561-15] | – | – | – | – | – | MIC [1, 13]: 64 µM (≈ 53.7 µg/mL); MIC [2, 14]: 4 µM (≈ 3.36 µg/mL); MIC [3, 15]: 2 µM (≈ 1.68 µg/mL); MIC [4, 16]: 64 µM (≈ 53.7 µg/mL) |
| Cc1nc(-c2ccc(C3CCC3)cc2)nc(N)c1C(=O)N[C@@H](CNS(N)(=O)=O)C(=O)N(C)[C@@H]1C(=O)N[C@@H](C)C(=O)N[C@H](C(=O)O)Cc2ccc(OC[C@H](O)CN)c(c2)-c2cc1cc(OC[C@H](O)CN)c2O [Example 41, (8S,11S,14S)-14-[[(2S)-2-[[4-amino-2-(4-cyclobutylphenyl)-6-methyl-pyrimidine-5-carbonyl]amino]-3-(sulfamoylamino)-propanoyl]-methyl-amino]-3,17-bis[(2R)-3-amino-2-hydroxy-propoxy]-18-hydroxy-11-methyl-10,13-dioxo-9,12-diazatri-cyclo[13.3.1.12,6]icosa-1(18),2(20),3,5,15(19), 16-hexaene-8-carboxylic acid] | 16 µM (≈ 16.1 µg/mL) | 1 µM (≈ 1.01 µg/mL) | 1 µM (≈ 1.01 µg/mL) | 16 µM (≈ 16.1 µg/mL) | 16 µM (≈ 16.1 µg/mL) | – |
| C[C@@H]1NC(=O)[C@@H](N(C)C(=O)[C@H](CNS(N)(=O)=O)NC(=O)c2c(N)cc(-c3ccc(C(C)(C)C)cc3)nc2Cl)c2cc(OC[C@H](O)CN)c(O)c(c2)-c2cc(ccc2OC[C@H](O)CN)C[C@@H](C(=O)O)NC1=O [Example 37, (8S,11S,14S)-14-[[(2S)-2-[[4-amino-6-(4-tert-butylphenyl)-2-chloro-pyridine-3-carbonyl]amino]-3-(sulfamoylamino)-propanoyl]-methyl-amino]-3,17-bis[(2R)-3-amino-2-hydroxy-propoxy]-18-hydroxy-11-methyl-10,13-dioxo-9,12-diazatri-cyclo[13.3.1.12,6]icosa-1(18),2(20),3,5,15(19), 16-hexaene-8-carboxylic acid] | 4 µM (≈ 4.11 µg/mL) | 0.5 µM (≈ 0.514 µg/mL) | 0.5 µM (≈ 0.514 µg/mL) | 8 µM (≈ 8.22 µg/mL) | 8 µM (≈ 8.22 µg/mL) | – |
| Cc1cc(-c2ccc(C(C)(C)C)cc2)nc(C)c1C(=O)N[C@@H](CCN)C(=O)N(C)[C@@H]1C(=O)N[C@@H](C)C(=O)N[C@H](C(=O)O)Cc2ccc(O)c(c2)-c2cc1ccc2OCCN (racemic) [Example 644] | – | – | – | – | – | MIC [1, 13]: 74 µM (≈ 60.8 µg/mL); MIC [2, 14]: 4.6 µM (≈ 3.78 µg/mL); MIC [3, 15]: 1.2 µM (≈ 0.986 µg/mL); MIC [4, 16]: 74 µM (≈ 60.8 µg/mL) |
| C[C@@H]1NC(=O)[C@@H](N(C)C(=O)[C@H](CNS(N)(=O)=O)NC(=O)c2cnn(-c3ccc(C(C)(C)C)cc3)c(=O)c2)c2cc(OC[C@H](O)CN)c(O)c(c2)-c2cc(ccc2OC[C@H](O)CN)C[C@@H](C(=O)O)NC1=O [Example 1, (8S,11S,14S)-18-hydroxy-11-methyl-14-[methyl-[(2S)-2-[[1-(4-tert-butylphenyl)-6-oxo-pyridazine-4-carbonyl]amino]-3-(sulfamoylamino)-propanoyl]amino]-10,13-dioxo-3,17-bis[(2R)-3-amino-2-hydroxy-propoxy]-9,12-diazatricyclo-[13.3.1.12,6]icosa-1(18),2(20),3,5,15(19), 16-hexaene-8-carboxylic acid] | – | – | – | – | – | MIC ([1]; PA01, 22 h): 16 µM (≈ 15.9 µg/mL); MIC [2, 5]: 1.5 µM (≈ 1.49 µg/mL); MIC ([3]; ATCC25922, 22 h): 3 µM (≈ 2.99 µg/mL); MIC [4, 6]: 24 µM (≈ 23.9 µg/mL); MIC [4, 7]: 24 µM (≈ 23.9 µg/mL) |
| CCCCCCOc1ccc(-c2nc(C)c(C(=O)N[C@@H](CCN)C(=O)N(C)[C@@H]3C(=O)N[C@@H](C)C(=O)N[C@H](C(=O)O)Cc4ccc(OCCN)c(c4)-c4cc3ccc4OCCN)c(C)n2)cc1 (racemic) [Example 641] | – | – | – | – | – | MIC [1, 13]: 64 µM (≈ 58.2 µg/mL); MIC [2, 14]: 1 µM (≈ 0.91 µg/mL); MIC [3, 15]: 0.75 µM (≈ 0.683 µg/mL); MIC [4, 16]: 64 µM (≈ 58.2 µg/mL) |

More lines, main results first:

| MIC [1, 8] | MIC [2, 9] | MIC [3, 10] | MIC [4, 11] | MIC [4, 12] | Structure (SMILES) | also measured |
| --- | --- | --- | --- | --- | --- | --- |
| 16 µM (≈ 16.4 µg/mL) | 1.5 µM (≈ 1.53 µg/mL) | 2 µM (≈ 2.04 µg/mL) | 24 µM (≈ 24.5 µg/mL) | 24 µM (≈ 24.5 µg/mL) | Cc1nc(-c2ccc(C(C)(C)C)cc2)nc(N)c1C(=O)N[C@@H](CCNS(N)(=O)=O)C(=O)N(C)[C@@H]1C(=O)N[C@@H](C)C(=O)N[C@H](C(=O)O)Cc2ccc(OC[C@H](O)CN)c(c2)-c2cc1cc(OC[C@H](O)CN)c2O [Example 76, (8S,11S,14S)-14-[[(2S)-2-[[4-amino-2-(4-tert-butylphenyl)-6-methyl-pyrimidine-5-carbonyl]amino]-4-(sulfamoylamino)-butanoyl]-methyl-amino]-3,17-bis[(2R)-3-amino-2-hydroxy-propoxy]-18-hydroxy-11-methyl-10,13-dioxo-9,12-diazatricyclo-[13.3.1.12,6]icosa-1(18),2(20),3,5,15(19), 16-hexaene-8-carboxylic acid] | – |
| 20 µM (≈ 19.8 µg/mL) | 0.88 µM (≈ 0.872 µg/mL) | 0.63 µM (≈ 0.624 µg/mL) | 12 µM (≈ 11.9 µg/mL) | 12 µM (≈ 11.9 µg/mL) | Cc1nc(-c2ccc(C3(C)CC3)cc2)ncc1C(=O)N[C@@H](CNS(N)(=O)=O)C(=O)N(C)[C@@H]1C(=O)N[C@@H](C)C(=O)N[C@H](C(=O)O)Cc2ccc(OC[C@H](O)CN)c(c2)-c2cc1cc(OC[C@H](O)CN)c2O [Example 5, (8S,11S,14S)-18-hydroxy-11-methyl-14-[methyl-[(2S)-2-[[4-methyl-2-[4-(1-methylcyclopropyl)-phenyl]pyrimidine-5-carbonyl]amino]-3-(sulfamoylamino)-propanoyl]amino]-10,13-dioxo-3,17-bis[(2R)-3-amino-2-hydroxy-propoxy]-9,12-diazatricyclo-[13.3.1.12,6]icosa-1(18),2(20),3,5,15(19), 16-hexaene-8-carboxylic acid] | – |
| 48 µM (≈ 45.2 µg/mL) | 0.25 µM (≈ 0.235 µg/mL) | 0.38 µM (≈ 0.358 µg/mL) | 16 µM (≈ 15.1 µg/mL) | 16 µM (≈ 15.1 µg/mL) | Cc1nc(-c2ccc(C3(C)CC3)cc2)nc(N)c1C(=O)N[C@@H](CCN)C(=O)N(C)[C@@H]1C(=O)N[C@@H](C)C(=O)N[C@H](C(=O)O)Cc2ccc(OC[C@H](O)CN)c(c2)-c2cc1cc(OC[C@H](O)CN)c2O [Example 21] | – |
